# Reference: patent US11512090B2, “Muscarinic acetylcholine M1 receptor antagonists” (PIPELINE THERAPEUTICS, INC., priority 2018, dated 2022)
# Read-outs that look alike come from different tables or passages of the source.
# Columns and labels:
# Format in all cases: cell-based
# human M1 receptor = biological target: T1, human M1 receptor (Homo sapiens, UniProt P11229); experiment: In vitro functional assay of muscarinic acetylcholine receptor activity (aequorin calcium flux, antagonist mode vs EC80 acetylcholine), M1; conditions: CHO-K1 cells stably expressing human M1 receptor with Aequorin; decrease in EC80 acetylcholine response; read-out: M1 IC50
# T1 sequence (P11229 1-460): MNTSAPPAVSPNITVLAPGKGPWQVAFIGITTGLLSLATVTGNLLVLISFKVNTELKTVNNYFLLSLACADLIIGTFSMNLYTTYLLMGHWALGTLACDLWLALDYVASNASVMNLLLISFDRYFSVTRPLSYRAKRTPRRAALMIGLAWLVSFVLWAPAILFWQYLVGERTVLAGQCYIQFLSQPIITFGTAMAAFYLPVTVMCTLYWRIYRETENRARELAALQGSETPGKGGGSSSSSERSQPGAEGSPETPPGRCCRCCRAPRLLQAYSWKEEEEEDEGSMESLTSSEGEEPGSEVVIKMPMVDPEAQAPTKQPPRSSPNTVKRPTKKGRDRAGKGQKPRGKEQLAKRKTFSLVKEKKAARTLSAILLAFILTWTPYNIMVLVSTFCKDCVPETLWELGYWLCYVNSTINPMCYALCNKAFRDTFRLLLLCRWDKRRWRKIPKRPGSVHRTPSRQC
# In short: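 Antagonism at M1 was measured as a concentration-dependent reduction of the EC80 acetylcholine-evoked aequorin luminescence, from which IC50 was derived. Human M1 CHO-K1 aequorin cells were first loaded with 5 uM coelenterazine h for 4 h and exposed to compound for 30 min at room temperature.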
# M2 = biological target: T2, M2 (Homo sapiens, UniProt P08172); experiment: In vitro functional assay of muscarinic acetylcholine receptor activity, M2
# T2 sequence (P08172 1-466): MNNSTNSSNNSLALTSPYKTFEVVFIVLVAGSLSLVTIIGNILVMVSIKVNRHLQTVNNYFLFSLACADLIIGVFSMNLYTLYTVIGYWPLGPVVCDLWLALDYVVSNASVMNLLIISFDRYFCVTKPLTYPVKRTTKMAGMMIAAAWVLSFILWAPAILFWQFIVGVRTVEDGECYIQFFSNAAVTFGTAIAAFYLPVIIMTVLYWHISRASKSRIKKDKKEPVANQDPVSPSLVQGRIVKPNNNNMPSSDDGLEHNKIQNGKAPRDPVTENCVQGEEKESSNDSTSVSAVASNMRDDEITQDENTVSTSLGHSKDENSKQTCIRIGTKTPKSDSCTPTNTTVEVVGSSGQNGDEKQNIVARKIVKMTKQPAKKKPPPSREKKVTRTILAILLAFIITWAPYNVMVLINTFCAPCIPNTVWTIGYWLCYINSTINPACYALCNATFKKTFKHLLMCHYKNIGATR
# M3 = M3 (Homo sapiens, UniProt P20309); experiment: In vitro functional assay of muscarinic acetylcholine receptor activity, M3; conditions: antagonist IC50 at M3; read-out: M3 IC50
# [1] = antagonist IC50 at M2, read-out: M2 IC50
# Sequence of M3 (P20309 whole entry): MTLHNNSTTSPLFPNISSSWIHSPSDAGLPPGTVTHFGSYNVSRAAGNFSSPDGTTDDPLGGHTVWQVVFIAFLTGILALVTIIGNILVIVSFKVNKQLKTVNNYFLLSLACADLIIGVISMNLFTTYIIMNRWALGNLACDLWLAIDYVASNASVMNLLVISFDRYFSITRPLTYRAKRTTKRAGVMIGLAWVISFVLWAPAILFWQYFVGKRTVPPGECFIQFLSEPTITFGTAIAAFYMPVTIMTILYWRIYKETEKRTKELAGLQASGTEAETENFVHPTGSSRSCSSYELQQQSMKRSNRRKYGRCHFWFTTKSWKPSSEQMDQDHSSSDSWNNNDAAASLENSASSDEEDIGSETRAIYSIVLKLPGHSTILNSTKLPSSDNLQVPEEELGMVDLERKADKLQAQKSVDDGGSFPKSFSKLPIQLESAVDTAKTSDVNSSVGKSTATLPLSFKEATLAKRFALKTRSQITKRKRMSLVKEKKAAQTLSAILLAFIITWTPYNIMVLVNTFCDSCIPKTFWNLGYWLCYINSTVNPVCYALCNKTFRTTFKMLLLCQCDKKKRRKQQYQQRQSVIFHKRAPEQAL
SMILES,IC50 (human M1 receptor),IC50 (M2; [1]),IC50 (M3),IC50 (M2)
"CC1CN(c2ccc(C#N)cn2)[C@H](C)CN1C(=O)CCS(=O)(=O)c1cccc2ncsc12 (stereo partly drawn) [Example 126, 6-[(2R)-4-[3-(1,3-benzothiazole-7-sulfonyl)propanoyl]-2,5-dimethylpiperazin-1-yl]pyridine-3-carbonitrile]",0.1 to 1 µM,> 10 µM,> 10 µM,
"O=C(N1CC(Oc2cccc3cnccc23)C1)N1C[C@H]2CC[C@@H](C1)N2c1ccc(F)cn1 [Example 3, ((1R,5S)-8-(5-fluoropyridin-2-yl)-3,8-diazabicyclo[3.2.1]octan-3-yl)(3-(isoquinolin-5-yloxy)azetidin-1-yl)methanone]",> 10 µM,,1 to 10 µM,0.1 to 1 µM
O=C(C1CN(Cc2cccc3ncsc23)C1)N1C[C@H]2CC[C@@H](C1)N2c1ccncc1F [Example 7],1 to 10 µM,> 10 µM,> 10 µM,
